In experiment [1] the target is T1, cotton aphid seizure D2 (Aphis gossypii, UniProt A0A9P0IRJ5, DEL620-651/K982T, form not given). Description: Electrophysiological analysis by two-electrode voltage clamp (TEVC) method using Xenopus laevis oocyte. The format is cell-based. The settings on record: read-out: IC50 on cotton aphid seizure D2, protocol IV. An excerpt:
Regarding four kinds of cotton aphid seizure splice variants (D1, D2, E1, E2), a gene optimal for producing a gene-recombinant nematode was selected by electrophysiological analysis by the two-electrode voltage clamp method (TEVC method) using an oocyte of Xenopus laevis.
In order to continuously maintain circulation and cleaning of water, female Xenopus laevis was reared in a water bath equipped with an air pump and a filtration device. For Xenopus laevis, a laboratory rearing line was purchased from NASCO (Fort Atkinson, Wis., USA), and adapted to a dry sample, and used in an experiment. Xenopus laevis was reared in tap water retained at a water temperature of 18° C., and a light/dark cycle of each 12 hours was artificially given. Xenopus laevis was anesthetized using a 2 g/l tolycaine aqueous solution, and subsequently cooled with an ice. […]
Using an amplifier TEC-03X manufactured by npi electronics (Tamm, Germany), and software Cellworks, an electrophysiological measurement was performed by the two-electrode voltage clamp method. Experimental data was recorded at room temperature (20 to 25° C.). […]
An activity of a compound was measured using protocol IV by the following procedure. […]
At each test concentration, an amplitude of a current waveform in last three times of continuous pulses was averaged, and a calculated current value was used for calculating an inhibition degree. […]

The next experiment concerns nematode. The settings on record: Drinking Assay, WO 01/88532; cited from earlier work.
Experiment [2] concerns the target T1, cotton aphid seizure D2. Description: Whole cell patch clamp method using CHO cell expressing cotton aphid seizure D2. The format is cell-based. The following applies: 30 μM clofilium. Here is the method: Using a CHO cell expressing cotton aphid seizure D2, an activity of a voltage-gated potassium channel was measured by a whole cell patch clamp method.
According to a general tissue culturing procedure, pGBB036 produced in Example 5 was transiently introduced into the CHO cell. In order to confirm that gene introduction is successful, a GFP gene which is a fluorescent marker was simultaneously introduced into the CHO cell. A ratio of pGBB036 and the marker gene was 10:1. It was possible to simply identify the cell for which gene introduction was successful with an incident-light fluorescence microscope. After cultured for 24 hours, the gene-introduced cell was dispensed, frozen, and immediately cryopreserved at −150° C. On the day before implementation of an electrophysiological experiment, the cryopreserved cell was suspended in a fresh medium again, and the cell was seeded on a cover glass having a diameter of 12 mm which was spread in a petri dish. The petri dish was retained at a temperature of 37° C. under the condition of CO2 at a 5% concentration. […]
Recording by the whole cell patch clamp method was implemented on one CHO cell. […] Recorded signals were all amplified with an amplifier PC-501A manufactured by Warner Instruments (Hamden, Conn., USA) and, thereafter, was digitalized at 10 kHz. […]
For orientation: In patch-clamp work, channel activity is measured electrically.

Experiment [3] deals with T1, cotton aphid seizure D2. Description: Electropharyngeogram of recombinant nematode UG2242 expressing cotton aphid seizure D2. It counts as in vivo. On the procedure: By recording a electropharyngeogram using UG2242 which is a transient transformed line, and UG2346 which is a stable transformed line, it was confirmed that the introduced cotton aphid seizure gene was expressed in a functional form.
An imago of a nematode reared at 20° C. was prepared. Using Dent's saline (composition in mM; D-glucose 10 mM, HEPES 10 mM, NaCl 140 mM, KCl 6 mM, CaCl2 3 mM, MgCl2 1 mM, pH 7.4) containing 20 mM serotonin promoting pumping as a chamber internal solution, the nematode was placed into the chamber. Aspiration was performed until the Dent's saline which is a chamber internal solution was contacted with an electrode in a micropipette. After mild aspiration, a head of the nematode was inserted into a tip of a pipette for recording. Data was obtained with an amplifier (Multiclamp 700-A, Axon instruments) and an A/D converter (Digidata 1322A, Axon instruments).

Experiment [4] addresses nematode functionally expressing cotton aphid seizure (Aphis gossypii, UniProt A0A9P0IRJ5, DEL620-651/K982T, form not given). Description: Feeding behavior activity (calcein AM intake) of recombinant nematode UG2346 functionally expressing cotton aphid seizure. The following applies: read-out: Activity to inhibit feeding behavior of nematode functionally expressing cotton aphid seizure (IC50), 0.03-100 μM. It counts as in vivo. Here is the method: In the pharynx of a gene-altered nematode, change in electric activity in cotton aphid seizure influences on an action of the pharynx, that is, intake of food. Therefore, the ability to change an activity of cotton aphid seizure can be measured as the ability to change intake of food, of the gene-recombinant nematode.
Intake of food of the nematode was measured by a method of adding a fluorescent dye precursor to a medium. Specifically, since the fluorescent dye precursor orally taken by the nematode is enzymatically converted into a fluorescent dye in the gut, and a fluorescent signal emitted by the gene-recombinant nematode is increased, intake of food of the nematode can be measured as a fluorescent signal emitted by the nematode.
For measuring the activity to change a feeding behavior activity of a nematode expressing cotton aphid seizure in a functional form, a fluorescent dye precursor was added to a liquid medium containing the nematode expressing cotton aphid seizure in a functional form, and intake of the fluorescent dye precursor orally ingested by the nematode was detected as a fluorescent signal emitted by the nematode. When intake of the fluorescent dye precursor was defined as a feeding behavior activity, an influence of a test substance on a feeding behavior activity was assessed as an influence, on an activity of cotton aphid seizure. […]

A further experiment has as its system Aphis gossypii. Description: Pesticidal activity test on artificial feed. The format is in vivo. The following applies: 50 ppm in artificial feed, six days, controlling value of 30% or more = active.

T1 sequence (A0A9P0IRJ5 entry or part of it DEL620-651/K982T, form open): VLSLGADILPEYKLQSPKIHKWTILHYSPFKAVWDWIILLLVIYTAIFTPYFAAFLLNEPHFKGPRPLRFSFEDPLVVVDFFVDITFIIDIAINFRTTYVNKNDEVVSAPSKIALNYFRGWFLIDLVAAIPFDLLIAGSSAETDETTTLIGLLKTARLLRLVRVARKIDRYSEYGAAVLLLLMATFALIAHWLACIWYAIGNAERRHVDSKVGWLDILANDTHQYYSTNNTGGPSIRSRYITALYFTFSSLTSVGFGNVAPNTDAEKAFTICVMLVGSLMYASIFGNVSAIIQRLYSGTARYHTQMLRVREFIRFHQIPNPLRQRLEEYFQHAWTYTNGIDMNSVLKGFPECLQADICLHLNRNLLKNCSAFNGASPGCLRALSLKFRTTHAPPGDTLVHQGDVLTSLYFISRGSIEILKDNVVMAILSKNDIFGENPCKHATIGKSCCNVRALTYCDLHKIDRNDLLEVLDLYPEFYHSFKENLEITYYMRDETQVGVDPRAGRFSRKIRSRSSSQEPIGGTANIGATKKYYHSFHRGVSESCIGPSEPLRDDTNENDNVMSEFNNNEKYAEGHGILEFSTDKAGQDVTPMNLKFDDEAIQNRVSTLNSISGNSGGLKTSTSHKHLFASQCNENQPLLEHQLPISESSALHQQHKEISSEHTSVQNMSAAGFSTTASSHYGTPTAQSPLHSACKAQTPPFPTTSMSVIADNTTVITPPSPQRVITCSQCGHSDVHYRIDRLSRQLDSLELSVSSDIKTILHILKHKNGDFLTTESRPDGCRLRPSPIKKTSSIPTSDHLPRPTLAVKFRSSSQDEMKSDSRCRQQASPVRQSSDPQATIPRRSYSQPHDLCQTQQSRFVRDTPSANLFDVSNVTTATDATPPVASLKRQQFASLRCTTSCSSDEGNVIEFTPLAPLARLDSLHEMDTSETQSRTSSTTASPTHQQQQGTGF
nematode functionally expressing cotton aphid seizure, sequence (A0A9P0IRJ5 entry or part of it DEL620-651/K982T, form open): as above
Description for Aphis gossypii: Then, according to the same manner as that of the method described in Handbook of Insect Rearing Vol. 1 (Elsevier Science Publishers 1985) pp. 35 to pp. 36 except that a test compound dissolved in DMSO to a final concentration of 50 ppm was added at 0.5% volume of the artificial feed, and components were mixed, Aphis gossypii was reared. […] Controlling value(%)={1−(Cb×Tai)/(Cai×Tb)}×100 Letters in the equation represent the following meanings. Cb: Number of surviving worms before treatment in non-treated section Cai: Number of surviving worms at observation in non-treated section Tb: Number of surviving worms before treatment in treated section Tai: Number of surviving worms at observation in treated section

Take `CN(CCOc1ccc(NS(C)(=O)=O)cc1)CCc1ccc(NS(C)(=O)=O)cc1` [Dofetilide]: on cotton aphid seizure D2 [1], the concentration for half-maximal inhibition (IC50) – broadly, the concentration that inhibits the measured activity by half – was roughly 23 µM.

In the case of `CN(C)CCCN1c2ccccc2CCc2ccc(Cl)cc21` [clomipramine], in the experiment on nematode, the “food intake by a nematode” value is given as “increases food intake”.

Consider `CCCCCCC[N+](CC)(CC)CCCCc1ccc(Cl)cc1.Cc1ccc(S(=O)(=O)[O-])cc1` [clofilium], for which the IC50 on cotton aphid seizure D2 [1] was roughly 1 µM; in experiment [4], 4 µM. Moreover, the “activity of a channel inhibited relative to non-treatment” value at cotton aphid seizure D2 [2] worked out at 86%. Besides, on cotton aphid seizure D2 [3] (5 μM treatment for 5 minutes), the “length of a potential waveform in electropharyngeogram” value is given as “significantly increased”. For the same compound, the “potential waveform in electropharyngeogram” value at cotton aphid seizure D2 [3] (5 μM treatment, after 15 minutes) is “the same potential waveform as that of a wild-type”. Further, the “Result of determination of insecticidal activity” value in the experiment on Aphis gossypii is “Having insecticidal activity”.

On to ivermectin, for which the “food intake by a nematode” value in the experiment with nematode is “inhibits food intake”.

The record behind these values is US20120131687A1 (priority 2008, published 2012).
